Columns and labels:
Assay type in all cases: in vivo, human
[1] = test system: newly diagnosed elderly patients with poor risk AML; experiment: Tipifarnib clinical study in newly diagnosed elderly patients with poor risk AML; conditions: for PFS: N=34
Description: (§1) Clinical studies with tipifarnib were performed in newly diagnosed elderly patients with poor risk AML or relapsed and refractory AML. In these studies, patient selection was not based on genetic markers. Anecdotal evidence of tipifarnib single agent activity was reported.
Patient subset—available AML marrow samples with NRAS WT or unknown, N=27 (NCBI GEO, GSE8970).
Since achievement of CR is the main driver of clinical benefit in AML, additional screenings were conducted to differentiate the CR responses vs HI/SD responses in the higher RHOE expression levels subset of FIG. 3A (replicated in FIG. 4A).
Another screening conducted to differentiate the CR responses and HI/SD responses from PD responses was based on both RHOE expression levels and RHOA expression levels of the subjects shown in FIG. 3A (replicated in FIG. 5). RHOA mRNA expression data was generated by RNASeq and expressed as RNA Seq V2 RSEM.
The mRNA expression profiling data from the clinical study with newly diagnosed elderly patients with poor risk AML were also analyzed for CXCR3, CXCL12, and RHOE. Patient subset—available AML marrow samples with NRAS WT, unknown, N-12, N12/N13, or N61 (1,2); N=34. […] Probe 207681 used for CXCR3 in the GPL96 Affimetrix microarray. The combination of the CXCR3 expression levels and CXC12 expression levels of newly-diagnosed elderly, frail AML patients, also correlated with treatment response. In particular, the product (multiplication) of the CXCR3 (“receptor”) expression levels and the CXCL12 (“ligand”) expression levels further differentiated the CR and HI/SD responses from the PD responses in the AML patients treated with tipifarnib. […] PFS in the high CXCL12×CXCR3 product subset was 433 days vs. 64 days in the low expressing product subset (HR=0.24, p=0.005, N=34).

[2] = test system: relapsed and refractory AML patients; experiment: Tipifarnib clinical study in relapsed and refractory AML patients
Description: as §1

[3] = test system: relapsed/refractory CMML patients; experiment: Tipifarnib clinical study in relapsed/refractory CMML patients
Description: Clinical studies with tipifarnib were performed in relapsed/refractory CMML patients (N=20) receiving tipifarnib as a single agent orally, twice a day (bid) for 7 days in alternating weeks (Days 1-7 and 15-21) in 28 day cycles. Eligible patients received tipifarnib administered at a starting dose of 1200 mg or 900 mg, orally with food, bid for 7 days in alternating weeks (Days 1-7 and 15-21) in 28 day cycles. Stepwise 300 mg dose reductions to control treatment-related, treatment-emergent toxicities were allowed.
Inclusion Criteria for this clinical study include: (a) diagnosis of CMML as defined by the World Health Organization (WHO) criteria; (b) Eastern Cooperative Oncology Group (ECOG) performance status 0 or 1; (c) subject is willing and able to comply with scheduled visits, treatment plans, laboratory tests and other procedures (including bone marrow assessments); (d) at least 1 week since the last systemic therapy regimen prior to Cycle 1 Day 1, subjects on a stable dose of hydroxyurea for at least 2 weeks prior to Cycle 1 Day 1 may continue on hydroxyurea until Cycle 1 Day 7, and subjects must have recovered to NCI CTCAE v. […] Both females and male subjects with female partners of child-bearing potential must agree to use an adequate method of contraception for 2 weeks prior to screening, during, and at least 4 weeks after last dose of study medication. Female subjects must have a negative serum or urine pregnancy test within 72 hours prior to start of study medication. Not breast feeding at any time during the study; and (h) written and voluntary informed consent understood, signed and dated. […]

[4] = higher pre-treatment CXCL12xCXCR3 product levels (20,000 or more) (FIG. 7)
[5] = lower RHOE expression levels (FIG. 3A)
[6] = lower pre-treatment CXCL12xCXCR3 product levels (less than 20,000) (FIG. 7)

With `Cn1cncc1[C@@](N)(c1ccc(Cl)cc1)c1ccc2c(c1)c(-c1cccc(Cl)c1)cc(=O)n2C` [tipifarnib] the “median progression free survival” value ([1]; CXCR3 expression levels in the first quartile (FIG. 9)) was “about 10 days”, the “median progression free survival” value ([1]; CXCR3 expression levels in the fourth quartile, p=0.0004 (FIG. 9)) was 406 days and the “median progression free survival” value ([1]; CXCR3 expression levels in the second quartile (FIG. 9)) was “about 70 days”. For the same molecule, the “median progression free survival” value ([1]; CXCR3 expression levels in the third quartile (FIG. 9)) was 248 days, the “median progression free survival” value ([1]; RND3 expression levels greater than or equal to 144 (higher RHOE) (FIG. 3B)) was 8.2 months and the “median progression free survival” value ([1]; RND3 expression levels less than 144 (lower RHOE) (FIG. 3B)) was 2.2 months. For the same molecule, the PFS ([1]; high CXCL12xCXCR3 product subset) was 433 days, the PD responses ([1]; higher RHOE expression levels (FIG. 3A)) was 1 out of 14 and the CR responses [1, 4] was 8 out of 14 subjects. For the same molecule, the PD responses [1, 4] was 0 out of 14, the SD/HI responses [1, 4] was 6 out of 14 subjects and the PFS ([1]; low expressing CXCL12xCXCR3 product subset) was 64 days. For the same molecule, the CR responses [1, 5] was 0 out of 13 subjects, the PD responses [1, 5] was 7 out of 13 subjects and the CR responses [1, 6] was 1 out of 20 subjects. The PD responses [1, 6] was 13 out of 20 subjects, the SD/HI responses [1, 6] was 6 out of 20 subjects and the “HR (PFS, high vs low CXCL12xCXCR3 product subset)” value ([1]; p=0.005, N=34) was 0.24. For the same molecule, the CR responses ([1]; treatment naive elderly, frail AML patients with higher RHOE expression levels (FIG. 3A)) was 8 out of 14 subjects, the mPFS percentage ([2]; CXCR3 expression levels in the first tertiale, N=58 (FIG. 10)) was 54 days and the mPFS percentage ([2]; CXCR3 expression levels in the second tertiale, N=58 (FIG. 10)) was 75 days. For the same molecule, the mPFS percentage ([2]; CXCR3 expression levels in the third tertiale, N=58, p=0.009 (FIG. 10)) was 182 days, the “median Time to Treatment Failure (TTF)” value ([3]; tertiale 1 (lowest PRICKLE2 expression), tipifarnib single agent (FIG. 11)) was 99 days and the “median Time to Treatment Failure (TTF)” value ([3]; tertiale 2 of PRICKLE2 expression, tipifarnib single agent (FIG. 11)) was 84 days. For the same molecule, the “median Time to Treatment Failure (TTF)” value ([3]; tertiale 3 (highest PRICKLE2 expression), tipifarnib single agent, p=0.047 vs tertiale 1 (FIG. 11)) was 288 days.

Source: patent US20220142983A1, “METHODS OF TREATING CANCER WITH FARNESYLTRANSFERASE INHIBITORS” (Kura Oncology, Inc., priority 2019, published 2022)
